Measured values: patent US20090042883A1, “ANTITUMOR AGENT” (KYOWA HAKKOKOGYO CO., priority 2005, published 2009)

How the values were obtained:
Format in all cases: cell-based
[1] = test system: human prostate cancer 22Rv1 cells; test: Growth inhibition test on human prostate cancer 22Rv1 cells (WST-1, % viability); settings: test compound 10 μmol/L, 72 hours, cells without test compound = 100%
Method: (§1) Five thousand cells of human prostate cancer 22Rv1 were inoculated into each well of a 96-well microplate (manufactured by Nunc Corp.), and using RPMI1640 medium (culture medium) containing 10% FCS, preculturing was performed in a 5% carbon dioxide incubator at 37° C. for 24 hours. A DMSO solution of each test compound prepared in a concentration of 10 mmol/L was diluted with the culture medium to a final concentration of 10 μmol/L, and the diluted solution was added to each well. The individual wells were further cultured in the 5% carbon dioxide incubator at 37° C. for 72 hours. After completion of the culturing, 10 μL of WST-1 labeled mixture (manufactured by Roche Diagnostic Corp.) was added to each well, and culturing was performed in the 5% carbon dioxide incubator at 37° C. for 2 hours. Using a microplate spectrophotometer (Model 550; manufactured by Bio-Rad), the absorbance of each well was measured at 450 nm and 655 nm. The value obtained by subtracting the absorbance at 450 nm from the absorbance at 655 nm (absorbance difference) was calculated for each well. The value for cells not incorporated with a test compound was designated as 100%, and the value at a well not containing cells was designated as 0%. By comparing these values with the absorbance difference obtained at the well in which each test compound was added, the cell viability (% viability) after treatment with the test compound was calculated.

[2] = test system: human chronic myelocytic leukemia K562 cells; test: Growth inhibition test on human chronic myelocytic leukemia K562 cells (WST-1, % viability); settings: test compound 10 μmol/L, 72 hours, cells without test compound = 100%
Method: One thousand cells of human chronic myelocytic leukemia K562 were inoculated into each well of a 96-well microplate (manufactured by Nunc Corp.), and using RPMI1640 medium (culture medium) containing 10% fetal calf serum (FCS), preculturing was performed in a 5% carbon dioxide incubator at 37° C. for 24 hours. A dimethyl sulfoxide (DMSO) solution of each test compound prepared in a concentration of 10 mmol/L was diluted with the culture medium to a final concentration of 10 μmol/L, and the diluted solution was added to each well. The individual wells were further cultured in the 5% carbon dioxide incubator at 37° C. for 72 hours. After completion of the culturing, 10 μL of WST-1 {4-[3-(4-Iodophenyl)-2-(4-nitrophenyl)-2H-5-tetrazolio]-1,3-benzene disulfonate} labeled mixture (manufactured by Roche Diagnostic Corp.) was added to each well, and culturing was performed in the 5% carbon dioxide incubator at 37° C. for 2 hours. Using a microplate spectrophotometer (SpectraMax 340PC384; manufactured by Nihon Molecular Devices), the absorbance of each well was measured at 450 nm and 655 nm. The value obtained by subtracting the absorbance at 450 nm from the absorbance at 655 nm (absorbance difference) was calculated for each well. The value for cells not incorporated with a test compound was designated as 100%, and the value at a well not containing cells was designated as 0%. By comparing these values with the absorbance difference obtained at the well in which each test compound was added, the cell viability (% viability) after treatment with the test compound was calculated.

[3] = test system: human chronic lymphocytic leukemia-derived MEC-1 cells; test: Growth inhibition test on human chronic lymphocytic leukemia-derived MEC-1 cells (WST-1, % viability); settings: test compound 10 μmol/L, 72 hours, cells without test compound = 100%
Method: as §1, with “Ten thousand” for “Five thousand”, “human chronic lymphocytic leukemia-derived MEC-1” for “human prostate cancer 22Rv1”, “for 1 hour.” for “for 24 hours.”, “for 3” for “for 2”, “spectrophotometer (M-SPmax 250;” for “spectrophotometer (Model 550;”, “by Molecular Devices Corp.),” for “by Bio-Rad),”

[4] = test system: human acute myelocytic leukemia MV4; 11 cells; test: Growth inhibition test on human acute myelocytic leukemia MV4; 11 cells (WST-1, % viability); settings: test compound 10 μmol/L, cells without test compound = 100%
Method: Ten thousand cells of human acute myelocytic leukemia MV4; 11 were inoculated into each well of a 96-well microplate (manufactured by Nunc Corp.), and using IMDM medium (culture medium) containing 10% FCS, preculturing was performed in a 5% carbon dioxide incubator at 37° C. for 24 hours. A DMSO solution of each test compound prepared in a concentration of 10 mmol/L was diluted with the culture medium to a final concentration of 10 μmol/L, and the diluted solution was added to each well. The individual wells were further cultured in the 5% carbon dioxide incubator at 37° C. for 72 hours. After completion of the culturing, 10 μL of WST-1 labeled mixture (manufactured by Roche Diagnostic Corp.) was added to each well, and culturing was performed in the 5% carbon dioxide incubator at 37° C. for 1 hour. Using a microplate spectrophotometer (SpectraMax 340PC384; manufactured by Nihon Molecular Devices), the absorbance of each well was measured at 450 nm and 655 nm. The value obtained by subtracting the absorbance at 450 nm from the absorbance at 655 nm (absorbance difference) was calculated for each well. The value for cells not incorporated with a test compound was designated as 100%, and the value at a well not containing cells was designated as 0%. By comparing these values with the absorbance difference obtained at the well in which each test compound was added, the cell viability (% viability) after treatment with the test compound was calculated.

CCc1c(O)cc(O)c(C(=O)c2ccc(OC(C)C)cc2)c1CC(=O)N(CCOC)CCN1CCOCC1 [Compound 134]
Viability of tumor cells (% viability), Human prostate cancer 22Rv1 cells [1]: 6%
Viability of tumor cells (% viability), Human chronic myelocytic leukemia K562 cells [2]: 4%
Viability of tumor cells (% viability), Human chronic lymphocytic leukemia MEC-1 cells [3]: 6%
Viability of tumor cells (% viability), Human acute myelocytic leukemia MV4; 11 cells [4]: 0%

CCc1c(O)cc(O)c(C(=O)c2ccc(OC)cc2)c1CC(=O)N(CCO)CCO [Compound 13]
Viability of tumor cells (% viability), Human prostate cancer 22Rv1 cells [1]: 6%
Viability of tumor cells (% viability), Human chronic myelocytic leukemia K562 cells [2]: 26%
Viability of tumor cells (% viability), Human chronic lymphocytic leukemia MEC-1 cells [3]: 7%
Viability of tumor cells (% viability), Human acute myelocytic leukemia MV4; 11 cells [4]: 0%

CCc1c(O)cc(O)c(C(=O)c2ccc(OC(C)C)cc2)c1CC(=O)N(CCO)CCOC [Compound 124]
Viability of tumor cells (% viability), Human prostate cancer 22Rv1 cells [1]: 5%
Viability of tumor cells (% viability), Human chronic myelocytic leukemia K562 cells [2]: 4%
Viability of tumor cells (% viability), Human chronic lymphocytic leukemia MEC-1 cells [3]: 4%
Viability of tumor cells (% viability), Human acute myelocytic leukemia MV4; 11 cells [4]: 0%

CCc1c(O)cc(O)c(C(=O)c2ccc(OC)cc2)c1CC(=O)N(CCO)Cc1ccco1 [Compound 69]
Viability of tumor cells (% viability), Human prostate cancer 22Rv1 cells [1]: 5%
Viability of tumor cells (% viability), Human chronic myelocytic leukemia K562 cells [2]: 4%
Viability of tumor cells (% viability), Human chronic lymphocytic leukemia MEC-1 cells [3]: 4%
Viability of tumor cells (% viability), Human acute myelocytic leukemia MV4; 11 cells [4]: 0%

CCc1c(O)cc(O)c(C(=O)c2ccc(S(C)(=O)=O)cc2)c1CC(=O)N(CCOC)CCOC [Compound 107]
Viability of tumor cells (% viability), Human prostate cancer 22Rv1 cells [1]: 5%
Viability of tumor cells (% viability), Human chronic myelocytic leukemia K562 cells [2]: 5%
Viability of tumor cells (% viability), Human chronic lymphocytic leukemia MEC-1 cells [3]: 5%
Viability of tumor cells (% viability), Human acute myelocytic leukemia MV4; 11 cells [4]: 0%
